How the values were obtained:
[1] = Effects of pharmacological treatments on growth parameters in dexamethasone-treated young rats; assay type: in vivo, Sprague-Dawley rats; conditions: for Final Body Weight: prepubertal male rats, dexamethasone 40 μg/kg ip daily from day 23, A 80 nmoles/kg sc three times daily from day 30; for Final Body Weight / Final Nose-Anal Length / Lee Obesity Index / Growth Rate / Epididymal Fat Pads: mean ± SEM of eight animals; for Final Nose-Anal Length / Lee Obesity Index / Growth Rate / Epididymal Fat Pads: same regimen; for Growth Rate: slope of growth curve; for Epididymal Fat Pads: weight at sacrifice
Protocol: (§1) Thirty-two prepubertal male Sprague-Dawley rats approximately 21 days old and weighing between 45 and 55 grams, were obtained from Harlan, Italy (S. Pietro al Natisone, ITALY). During the study, the animals were maintained in accordance with the guidelines of the Italian Ministry of Health for the care and use of laboratory animals (Decreto legge 116/92). The animals were randomly divided into two treatment groups and kept in a controlled environment at a constant temperature of 21-23° C. with 12:12 light/dark exposure continuous period wherein the light exposure began at approximately 8:00 am and ended at approximately 8:00 pm. The animals were provided with water and food ad libitum consisting of an approximate 3200 calories/kg daily diet of standard pellet chow provided by Piccioni, Gessate-Milano, Italy (containing at least 19% protein, 3% fat and 56% carbohydrate).
(§2) Beginning on the 23rd day (i.e., the animals were 23 days old), 16 of the study animals were treated intraperitoneally (Ip) daily with 40 μg/kg of either saline or dexamethasone sodium phosphate (sold under the trademark Decadron® by Merck Pharmaceuticals, West Point, Pa.). Beginning on the 30th day (i.e., the animals were 30 days old), the subgroup of 16 studied animals was further divided into groups of 8 and treated subcutaneously three times daily (at approximately 9:00 am, 1:00 pm and 5:00 pm) with either 80 nmoles/kg of the preferred ghrelin analog [Aib^2, Glu^3(NH-hexyl)]hGhrelin(1-28)-NH2 (IPSEN, Milford, Mass.) dissolved in a sterile saline solution with 0.25% bovine serum albumin or vehicle (the saline-bovine serum albumin solution alone). This regimen continued for 24 days during which time the studied animals were weighed two times per week. At irregular intervals, the cumulative food intake for a 24-hour period of time was measured. Beginning on the 46th day (i.e., the animals were 46 days old), the length of the test and control animals from nose to anus was measured (hereinafter referred to as “the nose-anal length”). On the 47th day (i.e., the animals were 47 days old), all food was denied to the test subjects commencing at 8:00 am. Small samples of blood were taken via percutaneous puncture of the tail to assess blood glucose levels during the treatment period.
(§3) The test animals received two intravenous administrations of [Aib^2, Glu^3(NH-hexyl)]hGhrelin(1-28)-NH2 at approximately 9:00 am and 1:00 pm. The studied animals were sacrificed by rapid decapitation at approximately 2:00 pm, trunk blood collected for hormone level determinations, and the epididymal fat pads removed and weighed.
(§4) Unless otherwise stated, the results reported in FIGS. 3-6 are expressed as the mean±SEM of eight replicate test subjects. Data was analyzed for statistical significance by one-way ANOVA which determines the variation (variance) within the groups and how that variation translates into variation (i.e. differences) between the groups, taking into account how many subjects there are in each group. […] The linear correlation analysis was performed either by Pearson's parametric test or by Spearman's nonparametric test. A P value below 0.05 was considered significant.

[2] = 24-h food intake and food efficiency in treated young rats; assay type: in vivo, Sprague-Dawley rats
Excerpt: FIG. 4. Panel A: the effect of the different pharmacological treatment on 24-h food intake expressed as a percent of the control value. Data represented the mean±SEM of nine determinations performed at irregular intervals from day 33 to day 47 after birth. Panel B: the effect of the different pharmacological treatments on food efficacy calculated as a ratio between food intake (g) and […] measured over the same time interval at different stages of growth. Data represents the meant SEM of eight rats. *P<0.05; **<0.01 vs SAL-treated rats (Dunnett's test). Panel C: the effect of the different pharmacological treatments on the cumulative food intake measured over the indicated time intervals at different stages of growth.
Beginning on the 23rd day (i.e., the animals were 23 days old), 16 of the study animals were treated intraperitoneally (Ip) daily with 40 μg/kg of either saline or dexamethasone sodium phosphate (sold under the trademark Decadron® by Merck Pharmaceuticals, West Point, Pa.). Beginning on the 30th day (i.e., the animals were 30 days old), the subgroup of 16 studied animals was further divided into groups of 8 and treated subcutaneously three times daily (at approximately 9:00 am, 1:00 pm and 5:00 pm) with either 80 nmoles/kg of the preferred ghrelin analog [Aib^2, Glu^3(NH-hexyl)]hGhrelin(1-28)-NH2 (IPSEN, Milford, Mass.) dissolved in a sterile saline solution with 0.25% bovine serum albumin or vehicle (the saline-bovine serum albumin solution alone). This regimen continued for 24 days during which time the studied animals were weighed two times per week. At irregular intervals, the cumulative food intake for a 24-hour period of time was measured. Beginning on the 46th day (i.e., the animals were 46 days old), the length of the test and control animals from nose to anus was measured (hereinafter referred to as “the nose-anal length”). […]
Food efficiency was calculated as the ratio between body weight gain (in grams) and food intake (in grams) measured over the same time interval.

[3] = Effects of pharmacological treatments on plasma hormones and glucose concentrations; assay type: in vivo, Sprague-Dawley rats; conditions: day 47, mean ± SEM of eight animals; for Glucose: at sacrifice; for Corticosterone / IGF-1 / Insulin: plasma at sacrifice
Protocol: as §1, §2, §3
Samples of trunk blood were taken from the test subjects via […]. The blood samples were collected in tubes containing EDTA, separated by centrifugation, and stored at −20° C. Plasma insulin, IGF-1, and corticosterone levels were all measured using commercial RIA kits (Insulin and Corticosterone kits were both obtained from ICN-Biomedicals, Asse-Relegem, BELGIUM and the rIGF-1 test kit was obtained from Mediagnostic GMbH, Tubingen, GERMANY). Glucose concentration was determined using the Glucotrend® Soft Test System blood glucose meter (Roche Diagnostics, Barcelona, SPAIN).
as §4

[4] = rat; cited from earlier work

| Molecule | growth suppression induced by DEX ([1]; concomitant treatment with DEX, FIG. 3) | Final Body Weight [1] | Final Nose-Anal Length [1] | Lee Obesity Index [1] | Growth Rate [1] | Epididymal Fat Pads [1] | somatic growth as compared to SAL-treated rats ([1]; young male rats, FIG. 3, Dunnett's t test) | food efficiency (ratio body weight gain / food intake) vs saline treatment ([2]; FIG. 4B, two out of three determinations) | cumulative 24-hour food intake vs saline-treated animals ([2]; after 10 days from beginning of dexamethasone treatment, FIG. 4A) | decrease of food efficiency induced by dexamethasone ([2]; co-administration with dexamethasone, FIG. 4B) | Glucose [3] | Corticosterone [3] | IGF-1 [3] | Insulin [3] | glucocorticoid-mediated GH-inhibition [4] |
| --- | --- | --- | --- | --- | --- | --- | --- | --- | --- | --- | --- | --- | --- | --- | --- |
| [Aib^2, Glu^3(NH-hexyl)]hGhrelin(1-28)-NH2 | reversed | 230.8 ± 4.8 g | 19.3 ± 0.1 cm | 318 ± 1.4 | 7.6 ± 0.3 g/day | 1.31 ± 0.07 g | significantly increased | increased | increased | able to reverse | 122 ± 3 mg/dL | 235 ± 23 ng/mL | 1653 ± 87 ng/mL | 40.4 ± 5.7 μIU/ml | – |
| C[C@@H]1C[C@H]2[C@@H]3CCC4=CC(=O)C=C[C@]4(C)[C@@]3(F)[C@@H](O)C[C@]2(C)[C@@]1(O)C(=O)CO [Dexamethasone, 9-fluoro-11β,17,21-trihydroxy-16a-methylpregna-1,4-diene-3,20-dione, reference compound] | – | 185.2 ± 4.2 g | 17.8 ± 0.2 cm | 321 ± 1.6 | 5.6 ± 0.2 g/day | 1.14 ± 0.06 g | – | – | – | – | 107 ± 6 mg/dL | 19 ± 2 ng/mL | 1257 ± 112 ng/mL | 50 ± 6 μIU/ml | – |
| GHRP-6 | – | – | – | – | – | – | – | – | – | – | – | – | – | – | able to completely counteract |
